The numbers were not newly measured in patent US11278709B1, “Drug delivery device and methods for using same” (Pocket Naloxone Corp., priority 2021, dated 2022), which cites them from elsewhere.

The conditions of the data set: 4 mg dose via a nasal spray.

For orientation: Cmax means the peak of the concentration-time curve. On to `C=CCN1CC[C@]23c4c5ccc(O)c4O[C@H]2C(=O)CC[C@@]3(O)[C@H]1C5` [naloxone], for which the AUClast is 7.95 ng·h/mL and the peak concentration (Cmax) is 4.83 ng/mL.
